The source of these data is patent publication US12692264B2, “Pyrimidine or pyridine derivative, preparation method therefor, and application thereof in pharmacy” (ABBISKO THERAPEUTICS CO., LTD., priority 2021, dated 2026).

Each structure is given as a SMILES string.

For one test, the system named is A431 (EGFR-WT). Briefly: Cell proliferation study (CellTiter-Glo, 72 hrs), A431. The test is classed as cell-based. The conditions noted are these: Homo sapiens, A-431, A431 cells, CTG, * = average of multiple measurements. Here is the method: (§1) (I) Reagents and Materials
(§2) • Fetal bovine serum FBS (GBICO, Cat #10099-141); • CellTiter-Glo® luminescent cell viability assay kit (Promega, Cat #G7572); • Black transparent flat-bottom 96-well plate (Corning®, Cat #3603). (II) Instruments • SpectraMax multi-label microplate reader MD, 2104-0010A; • Carbon dioxide incubator, Thermo Scientific 3100 series; • Biological safety cabinet, Thermo Scientific, 1300 series model A2; • Inverted microscope, Olympus, CKX41SF; • Siemens refrigerator KK25E76T1. (III) Cell Lines and Culture Conditions
(§3) (IV) Experimental Procedures 1. Cell Culture and Inoculation: • (1) Cells in the logarithmic growth phase were harvested and counted using a […]. The cell viability was determined by the trypan blue dye exclusion method to ensure cell viability above 90%. • (2) The cell concentration was adjusted to reach a desired final density; 90 μL of cell suspension was added to a 96-well plate. • (3) The cells were incubated overnight in the 96-well plate at 37° C., 5% CO2 and with 95% humidity. 2. T0 Benchmark Data: • (1) 10 μL of PBS was added to each well of the TO plate containing the cells. • (2) The CTG reagent was thawed and the cell plate was equilibrated to room temperature for 30 min. • (3) An equal volume of CTG solution was added to each well. • (4) The cells were lysed by shaking on an orbital shaker for 5 min. • (5) The cell plate was left to stand at room temperature for 20 min to stabilize the fluorescence signal. • (6) The fluorescence signal values of TO were read. 3. Dilution and Addition of Compounds • (1) According to the compound information table, a corresponding volume of DMSO was added to the corresponding compound powder to prepare a 10 mM stock solution. • (2) A 1000-fold, 3.16-fold-diluted compound solution was prepared. • (3) The 1000× diluted compound solution was diluted 100-fold with PBS to prepare a 10-fold compound solution with a maximum concentration of 10 μM, including 9 concentrations, with 3.16-fold dilution, and 10 μL of the medicament solution was added to each well of the 96-well plate to seed the cells. Triplicate wells were set for each compound concentration, with a final concentration of DMSO being 0.1%. • (4) The cells were placed in the 96-well plate containing the medicament at 37° C., 5% CO2 and with 95% humidity, and cultured for 72 hrs before CTG analysis. 4. Fluorescence Signal Reading • (1) The CTG reagent was thawed and the cell plate was equilibrated to room temperature for 30 min. • (2) An equal volume of CTG solution was added to each well. • (3) The cells were lysed by shaking on an orbital shaker for 5 min. • (4) The cell plate was left to stand at room temperature for 20 min to stabilize the fluorescence signal. • (5) The fluorescence values were read. 5. Data Processing
(§4) Data were analyzed using GraphPad Prism 7.0 software and fitted data were regressed using non-linear S-curves to obtain dose-response curves from which IC50 values (in nM) were calculated.
(In general: In ATP-based viability assays light output follows the ATP content of the culture.)

In test [1] the target is Ba/F3 EGFR-D770-N771ins_SVD (Homo sapiens, UniProt P00533, DUP768-770, cells depend on it). Description: Cell proliferation study (CellTiter-Glo, 72 hrs), Ba/F3 EGFR-D770-N771ins_SVD. It counts as cell-based. The conditions noted are these: CTG, * = average of multiple measurements, read-out: Ba/F3 EGFR-D770-N771ins_SVD IC50. Here is the method:
as §1, §2, §3, §4

Sequence of Ba/F3 EGFR-D770-N771ins_SVD (P00533 with tags, fused parts or gaps DUP768-770): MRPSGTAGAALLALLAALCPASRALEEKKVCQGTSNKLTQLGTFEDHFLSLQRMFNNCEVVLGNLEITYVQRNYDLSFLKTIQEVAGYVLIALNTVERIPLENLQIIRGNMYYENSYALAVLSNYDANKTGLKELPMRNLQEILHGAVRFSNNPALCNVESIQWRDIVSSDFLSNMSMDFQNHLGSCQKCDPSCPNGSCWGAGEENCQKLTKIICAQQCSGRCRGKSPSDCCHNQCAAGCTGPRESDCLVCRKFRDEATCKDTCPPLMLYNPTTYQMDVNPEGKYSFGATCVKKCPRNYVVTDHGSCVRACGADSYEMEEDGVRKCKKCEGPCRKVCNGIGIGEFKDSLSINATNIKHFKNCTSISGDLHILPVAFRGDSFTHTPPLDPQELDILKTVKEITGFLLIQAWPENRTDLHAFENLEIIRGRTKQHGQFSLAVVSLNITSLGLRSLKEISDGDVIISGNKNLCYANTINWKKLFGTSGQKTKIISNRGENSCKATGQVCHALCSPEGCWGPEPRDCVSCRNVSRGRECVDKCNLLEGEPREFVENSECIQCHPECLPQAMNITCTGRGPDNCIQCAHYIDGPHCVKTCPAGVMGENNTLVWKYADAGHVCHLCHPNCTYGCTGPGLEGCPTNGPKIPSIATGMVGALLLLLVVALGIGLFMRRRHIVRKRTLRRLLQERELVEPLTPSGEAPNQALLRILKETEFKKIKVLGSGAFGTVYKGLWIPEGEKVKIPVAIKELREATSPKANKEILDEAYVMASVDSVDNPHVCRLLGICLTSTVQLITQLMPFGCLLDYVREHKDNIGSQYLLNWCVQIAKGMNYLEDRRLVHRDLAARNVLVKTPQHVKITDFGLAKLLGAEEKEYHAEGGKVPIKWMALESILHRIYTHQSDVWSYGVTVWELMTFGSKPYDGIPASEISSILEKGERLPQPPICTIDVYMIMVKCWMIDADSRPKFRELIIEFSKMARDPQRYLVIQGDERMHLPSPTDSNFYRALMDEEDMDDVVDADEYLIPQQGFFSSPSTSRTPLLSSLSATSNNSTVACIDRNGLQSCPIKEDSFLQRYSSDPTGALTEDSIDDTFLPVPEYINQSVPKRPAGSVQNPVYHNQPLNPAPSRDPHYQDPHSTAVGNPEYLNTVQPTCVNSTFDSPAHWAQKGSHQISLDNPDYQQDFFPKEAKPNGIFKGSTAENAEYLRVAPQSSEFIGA

Consider `C=CC(=O)Nc1cc(Nc2ncc(C(=O)OC(C)C)c(N3CC(C)(C)c4nc(C5CC5)ccc43)n2)c(OC)cc1N(C)CCN(C)C` [Example 4, isopropyl 2-((5-acrylamido-4-((2-(dimethylami-no)ethyl)(methyl)amino)-2-methoxy-phenyl)amino)-4-(5-cyclopropyl-3,3-dimethyl-2,3-dihydro-1H-pyrrolo[3,2-b]pyridin-1-yl)pyrimidine-5-carboxylate], for which the IC50 in the test on A431 (EGFR-WT) was 163 nM. Further, the GI50 in test [1] was determined as 59.5 nM.

The compound `[2H]C([2H])([2H])Oc1cc(N(C)CCN(C)C)c(NC(=O)C=C)cc1Nc1ncc(C(=O)OC(C)C)c(N2CC(C)(C)c3nc(C)ccc32)n1` [Example 27, isopropyl 2-((5-acrylamido-4-((2-(dimethylami-no)ethyl)(methyl)amino)-2-(methoxy-d3)phenyl)amino)-4-(3,3,5-trimethyl-2,3-dihydro-1H-pyrrolo[3,2-b]pyridin-1-yl)pyrimidine-5-carboxylate] gave a 50% inhibitory concentration (IC50) in the test with A431 (EGFR-WT) of 580 nM. Besides, the GI50 in test [1] is 14.1 nM.

`C=CC(=O)Nc1cc(Nc2ncc(C(=O)OC(C)C)c(N3CC(C)(C)c4nc(C)ccc43)n2)c(OC)nc1N1CC[C@@H](N(C)C)C1` [Example 35, isopropyl (R)-2-((5-acrylamido-6-(3-(dimethyl-amino)pyrrolidin-1-yl)-2-methoxy-pyridin-3-yl)amino)-4-(3,3,5-trimethyl-2,3-dihydro-1H-pyrrolo[3,2-b]pyridin-1-yl)pyrimidine-5-carboxylate] returned an IC50 in the test with A431 (EGFR-WT) of 1070 nM. Further, the GI50 in test [1] was found to be 36 nM.

`C=CC(=O)Nc1cc(Nc2ncc(C(=O)OC(C)C)c(N3CC(C)(C)c4nc(C)ccc43)n2)c(OC)cc1N(C)C[C@@H]1CCCN1C` [Example 41, isopropyl (S)-2-((5-acrylamido-2-methoxy-4-(methyl((1-methylpyrrolidin-2-yl)methyl)amino)phenyl)amino)-4-(3,3,5-trimethyl-2,3-dihydro-1H-pyrrolo[3,2-b]pyridin-1-yl)pyrimidine-5-carboxylate] came in with an IC50 in the test with A431 (EGFR-WT) of 213 nM. Besides, the GI50 in test [1] was 36.3 nM.

In the case of `C=CC(=O)Nc1cc(Nc2ncc(C(=O)OC(C)C)c(N3CC(C)(C)c4nc(C)ccc43)n2)c(OC)nc1N1CCC[C@H]1CN(C)C` [Example 43, isopropyl (S)-2-((5-acrylamido-6-(2-((dimethyl-amino)methyl)pyrrolidin-1-yl)-2-meth-oxypyridin-3-yl)amino)-4-(3,3,5-tri-methyl-2,3-dihydro-1H-pyrrolo[3,2-b]pyridin-1-yl)pyrimidine-5-carboxylate], in test [1], the GI50 was 453 nM.

As to `C=CC(=O)Nc1cc(Nc2ncc(C(=O)OC(C)C)c(N3CC(C)(C)c4nc(C)ccc43)n2)c(OC)cc1N(CC)CCN(C)C` [Example 45, isopropyl 2-((5-acrylamido-4-((2-(dimethylami-no)ethyl)(ethyl)amino)-2-methoxy-phenyl)amino)-4-(3,3,5-trimethyl-2,3-dihydro-1H-pyrrolo[3,2-b]pyridin-1-yl)pyrimidine-5-carboxylate], in test [1], the GI50 is 76.2 nM.

On to `C=CC(=O)Nc1cc(Nc2ncc(C(=O)OC(C)C)c(N3CC4(CC4)c4nc(C)ccc43)n2)c(OC)cc1N1CCC[C@H]1CN(C)C` [Example 51, isopropyl (S)-2-((5-acrylamido-4-(2-((dimethyl-amino)methyl)pyrrolidin-1-yl)-2-meth-oxyphenyl)amino)-4-(5′-methyl-spiro(cyclopropane-1,3′-pyrrolo[3,2-b]pyridin)-1′(2′H)-yl)pyrimidine-5-carboxylate], for which the GI50 in test [1] was 199 nM.

For the compound `[2H]C1([2H])N(c2nc(Nc3cc(NC(=O)C=C)c(N4CCN(C5CC5)CC4)cc3OC)ncc2C(=O)OC(C)C)c2ccc(C)nc2C1(C)C` [Example 53, isopropyl 2-((5-acrylamido-4-(4-cyclopropyl-piperazin-1-yl)-2-methoxy-phenyl)amino)-4-(3,3,5-trimethyl-2,3-dihydro-1H-pyrrolo[3,2-b]pyridin-1-yl-2,2-d2)pyrimidine-5-carboxylate], the GI50 in test [1] amounted to 552 nM.

For the compound `C=CC(=O)Nc1cc(Nc2ncc(C(=O)OC(C)C)c(N3CC(C)(C)c4nc(C)ccc43)n2)c(OC)cc1N1CCC[C@@H](N(C)C)C1` [Example 61, isopropyl (R)-2-((5-acrylamido-4-(3-(dimethyl-amino)piperidin-1-yl)-2-methoxy-phenyl)amino)-4-(3,3,5-trimethyl-2,3-dihydro-1H-pyrrolo[3,2-b]pyridin-1-yl)pyrimidine-5-carboxylate], the GI50 in test [1] came to 255 nM.

As to `[2H]C([2H])([2H])N(CCN(C)C)c1cc(OC)c(Nc2ncc(C(=O)OC(C)C)c(N3CC4(CC4)c4nc(C)ccc43)n2)cc1NC(=O)C=C` [Example 68, isopropyl 2-((5-acrylamino-4-((2-(dimethylami-no)ethyl)(methyl-d3)amino)-2-methoxyphenyl)amino)-4-(5′-methylspiro(cyclopropane-1,3′-pyrrolo[3,2-b]pyridin)-1′(2′H)-yl)pyrimidine-5-carboxylate], the GI50 in test [1] was determined as 30.6 nM.

Regarding `C=CC(=O)Nc1cc(Nc2ncc(C(=O)OC(C)C)c(N3CC(C)(C)c4nc(C#CC)ccc43)n2)c(OC)cc1N1CCN(C)CC1` [Example 70, isopropyl 2-((5-acrylamido-2-methoxy-4-(4-methylpiperazin-1-yl)phenyl)amino)-4-(3,3-dimethyl-5-(prop-1-yn-1-yl)-2,3-dihydro-1H-pyrrolo[3,2-b]pyridin-1-yl)pyrimidine-5-carboxylate], in test [1], the GI50 was determined as 501 nM.

On to `C=CC(=O)Nc1cc(Nc2ncc(C(=O)OC(C)C)c(N3CC(C)(C)c4nc(C#CC)ccc43)n2)c(OC)cc1N1CCN(C2CC2)CC1` [Example 75, isopropyl 2-((5-acrylamido-4-(4-cyclopropyl-piperazin-1-yl)-2-methoxyphenyl)ami-no)-4-(3,3-dimethyl-5-(prop-1-yn-1-yl)-2,3-dihydro-1H-pyrrolo[3,2-b]pyridin-1-yl)pyrimidine-5-carboxylate], for which the GI50 in test [1] came out at 2850 nM.

`C=CC(=O)Nc1cc(Nc2ncc(C(=O)OC(C)C)c(N3CC(C)(C)c4nc5c(cc43)CCC5)n2)c(OC)cc1N(C)CCN(C)C` [Example 80, isopropyl 2-((5-acrylamido-4-((2-(dimethylami-no)ethyl)(methyl)amino)-2-methoxy-phenyl)amino)-4-(3,3-dimethyl-3,5,6,7-tetrahydrocyclopenta[b]pyrrolo[2,3-e]pyridin-1(2H)-yl)pyrimidine-5-carboxylate]: the GI50 in test [1] came to 44.9 nM.

As for `C=CC(=O)Nc1cc(Nc2ncc(C(=O)OC(C)C)c(N3CC(C)(C)c4nc(Br)ccc43)n2)c(OC)cc1N(C)CCN(CC)CC` [Example 90, isopropyl 2-((5-acrylamido-4-((2-(diethyl-amino)ethyl)(methyl)amino)-2-methoxyphenyl)amino)-4-(5-bromo-3,3-dimethyl-2,3-dihydro-1H-pyrrolo[3,2-b]pyridin-1-yl)pyrimidine-5-carboxylate], in test [1], the GI50 came to 116 nM.

As for `C=CC(=O)Nc1cc(Nc2ncc(C(=O)OC(C)C)c(N3CC(C)(C)c4cc(F)c(F)cc43)n2)c(OC)cc1N1CC[C@@H](N(C)C)C1` [Example 94, isopropyl (R)-2-((5-acrylamido-4-(3-(dimethyl-amino)pyrrolidin-1-yl)-2-methoxy-phenyl)amino)-4-(5,6-difluoro-3,3-dimethylindolin-1-yl)pyrimidine-5-carboxylate], the GI50 in test [1] was 60 nM.

In the case of `C=CC(=O)Nc1cc(Nc2ncc(C(=O)OC(C)C)c(N3CC(C)(C)c4nc(C#CC)ccc43)n2)c(OC)cc1N1CCN(C)C(C)C1` (centres unmarked) [Example 95, isopropyl 2-((5-acrylamido-4-(3,4-dimethyl-piperazin-1-yl)-2-methoxy-phenyl)amino)-4-(3,3-dimethyl-5-(prop-1-yn-1-yl)-2,3-dihydro-1H-pyrrolo[3,2-b]pyridin-1-yl)pyrimidine-5-carboxylate], the GI50 in test [1] is 254 nM.

The term IC50 denotes the concentration at which inhibition is half-maximal. Read a low IC50 as higher potency.
